# From patent publication EP4775582A1, “MACROCYCLIC COMPOUND AND ANTIBODY-DRUG CONJUGATE THEREOF” (Genfleet Therapeutics (Shanghai) Inc., priority 2023, dated 2025)
# Read-outs that look alike come from different tables or passages of the source.
# Legend:
# H441 p-ERK = test: Cell p-ERK assay (HTRF), NCI-H441 cells; assay type: cell-based, human; conditions: Homo sapiens; NCI-H441 cells (KRAS G12V), 3 h incubation
# How it was run: (§1)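 Phospho-ERK (T202/Y204) was measured by HTRF in lysates after 3 h compound treatment at 37 °C. Cells had been plated the previous day at 20000 per well for NCI-H441 and 10000 per well for AsPC-1. Four-parameter dose-response fitting of % inhibition gave IC50 values.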
# AsPC-1 p-ERK = test: Cell p-ERK assay (HTRF), AsPC-1 cells; assay type: cell-based, human; conditions: Homo sapiens
# How it was run: as §1
# NCI-H441 cells = test: 3D cell proliferation assay (CellTiter Glo-3D), NCI-H441; assay type: cell-based, human; conditions: Homo sapiens, 120 h, NCI-H441 cells (KRAS G12V), 2% FBS, 5 days, read-out: H441 AP IC50
# How it was run: (§2)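 IC50 values come from four-parameter fits of inhibition rate against log compound concentration, using CellTiter-Glo luminescence read after 5 days' exposure. AsPC-1 and NCI-H441 were plated at 800 cells per well in low-serum (2% FBS) medium. Compound was dosed the day after seeding, with incubation at 37 °C, 5% CO2.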
# AsPC-1 cells = test: 3D cell proliferation assay (CellTiter Glo-3D), AsPC-1; assay type: cell-based, human; conditions: Homo sapiens, ASPC1, 120 h; AsPC-1 cells (KRAS G12D), 3D, 2% FBS, 5 days; read-out: AsPC-1 AP IC50
# How it was run: as §2
# [1] = Solubility experiment (HPLC, external standard); assay type: physicochemical; conditions: pH 7.4, pH 7.4 medium, 37 °C, 24 h
# Experimental: This experiment was intended to determine the solubility of the compounds in media at different pH values. The materials used in the experiment included: a pH 1.2 medium, a pH 4.5 medium, a pH 7.4 medium, and a diluent (acetonitrile/water = 50/50). 1. The preparation methods for media are as follows:
# One centrifuge tube (containing about 2 mg of the test sample) was taken, 1 mL of DMSO was added to completely dissolve the test sample, and the mixture was marked as stock-1. 0.2 mL of stock-1 was transferred into a 10 mL volumetric flask, and then the 50:50 (acetonitrile/water) solution was added to bring the volume to the mark, so as to give a control solution.
# Additionally, centrifuge tubes each containing about 1 mg of the test sample were taken, 1 mL of the corresponding medium solution was then added, and the tubes were shaken on a 37 °C water bath shaker for 24 h. After centrifugation for 3 times (centrifugation time: 10 min, rotation speed: 12000 rpm), 0.2 mL of the supernatants were taken, 0.8 mL of the diluent (acetonitrile/water = 50/50) was added to each tube, and the mixtures were vortexed and mixed well to give solubility samples.
# The solubility samples described above and the control solution were sequentially analyzed by high performance liquid chromatography. The chromatographic conditions are as follows:
# The actual concentration of the compound in each solubility sample was calculated according to an external standard method. Concentration (μg/mL) = (ASample × CControl × DSample)/(AControl)∗1000; [formula] Asample: the peak area of the target peak in the sample solution; Ccontrol: the concentration (mg/mL) of the control solution; Dsample: the dilution factor of the sample solution; Acontrol: the peak area of the target peak in the control solution.
# KRAS WT-cRAF = KRAS WT-cRAF (Homo sapiens, UniProt P01116+P62937); test: Assay for binding of KRAS to cRAF (HTRF, with Cyclophilin A), KRAS WT
# Chain of KRAS WT-cRAF (P01116 1-188 isoform P01116-2): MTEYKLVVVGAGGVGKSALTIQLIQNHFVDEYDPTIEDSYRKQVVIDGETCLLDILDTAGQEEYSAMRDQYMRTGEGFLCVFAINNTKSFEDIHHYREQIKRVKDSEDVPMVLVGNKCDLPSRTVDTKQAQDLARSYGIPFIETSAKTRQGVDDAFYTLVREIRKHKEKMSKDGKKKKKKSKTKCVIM
# Chain of KRAS WT-cRAF (P62937 whole entry): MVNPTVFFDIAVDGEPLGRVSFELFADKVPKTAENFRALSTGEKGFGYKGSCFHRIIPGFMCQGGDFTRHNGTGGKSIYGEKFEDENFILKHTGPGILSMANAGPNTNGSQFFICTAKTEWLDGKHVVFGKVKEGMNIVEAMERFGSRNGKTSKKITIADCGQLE
# Experimental: (§3) The plate was centrifuged at 1000 rpm for 1 min and then incubated in the thermostatic incubator at 20 °C for 30 min. […] The plate was centrifuged at 1000 rpm for 1 min and then incubated in the thermostatic incubator at 20 °C for 60 min. […] The working solution was added to the aforementioned assay plate at 5 µL/well. The plate was centrifuged at 1000 rpm for 1 min and then incubated in the thermostatic incubator at 20 °C for 60 min.
# KRAS G12V-cRAF = KRAS G12V-cRAF (Homo sapiens, UniProt P01116+P62937, G12V); test: Assay for binding of KRAS to cRAF (HTRF, with Cyclophilin A), KRAS G12V
# Chain of KRAS G12V-cRAF (P01116 1-188 isoform P01116-2 G12V): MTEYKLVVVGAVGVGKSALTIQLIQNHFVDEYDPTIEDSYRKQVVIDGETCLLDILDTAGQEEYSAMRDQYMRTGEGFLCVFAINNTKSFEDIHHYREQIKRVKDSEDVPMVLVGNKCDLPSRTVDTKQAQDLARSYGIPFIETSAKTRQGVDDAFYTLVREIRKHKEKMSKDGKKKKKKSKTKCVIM
# Chain of KRAS G12V-cRAF (P62937 whole entry): as the sequence (P62937 whole entry) above
# Experimental: as §3
# [2] = ASPC1, AsPC-1 cells (KRAS G12D), 3 h incubation, read-out: AsPC-1 p-ERK IC50
# [3] = KRAS WT-cRAF binding assay(nM), GPPNP-KRAS WT, IC50 values
# [4] = KRAS G12V-cRAF binding assay(nM), GPPNP-KRAS G12V, IC50 values
# [5] = read-out: KRAS WT-cRAF binding assay, GPPNP-KRAS WT, IC50 values
# [6] = read-out: KRAS G12V-cRAF binding assay, GPPNP-KRAS G12V, IC50 values
IC50 (H441 p-ERK) [nM],IC50 (AsPC-1 p-ERK; [2]) [nM],solubility at 24 h ([1]; pH 7.4 medium) [µg/mL],IC50 (KRAS WT-cRAF; [3]) [nM],IC50 (KRAS G12V-cRAF; [4]) [nM],"IC50 (AsPC-1 p-ERK; ASPC1, 3 h, read-out: AsPC-1 p-ERK IC50(nM)) [nM]",SMILES,IC50 (NCI-H441 cells) [nM],IC50 (AsPC-1 cells) [nM],solubility at 24 h ([1]; ph 7.4 medium) [µg/mL],IC50 (KRAS WT-cRAF; [5]) [nM],IC50 (KRAS G12V-cRAF; [6]) [nM]
–,–,97,69.6,37.7,–,"COCCn1c(-c2cc(C#CCN3CCN(C(=O)CO)CC3)c[n+]([O-])c2C(C)OC)c2c3cc(ccc31)-c1csc(n1)CC(NC(=O)C1C3COCC31)C(=O)N1CCCC(N1)C(=O)OCC(C)(C)C2 (atropisomer, axis not shown; (Ra)) [Compound Z38-1, (Ra)-3-((6^3S,4S,Z)-4-((1R,5S,6r)-3-oxabicyclo[3.1.0]hexane-6-carboxamido)-1^1-(2-methoxyethyl)-10,10-dimethyl-5,7-dioxo-6^1,6^2,6^3,6^4,6^5,6^6-hexahydro-1^1H-8-oxa-2(4,2)-thiazola-1(5,3)-indola-6(1,3)-pyridazinacycloundecaphane-1^2-yl)-5-(3-(4-(2-hydroxyacetyl)piperazin-1-yl)prop-1-yn-1-yl)-2-((S)-1-methoxyethyl)pyridine-1-oxide]",–,–,–,–,–
8.12,10.6,101,62,8.7,–,"CCn1c(-c2cc(C#CCN3CCS(=O)(=O)CC3)cnc2C(C)NC)c2c3cc(ccc31)-c1csc(n1)CC(NC(=O)C1C(C)C1C)C(=O)N1CCCC(N1)C(=O)OCC(C)(C)C2 (atropisomer, axis not shown; (Ra)) [Compound Z67, (1r,2R,3S)-N-((6^3S,4S,Z)-(Ra)-1^2-(5-(3-(1,1-dioxidothiomorpholino)prop-1-yn-1-yl)-2-((R)-1-(methylamino)ethyl)pyridin-3-yl)-1-ethyl-10,10-dimethyl-5,7-dioxo-6^1,6^2,6^3,6^4,6^5,6^6-hexahydro-1^1H-8-oxa-2(4,2)-thiazola-1(5,3)-indola-6(1,3)-pyridazinacycloundecaphane-4-yl)-2,3-dimethylcyclopropane-1-carboxamide]",–,–,–,–,–
1.27,–,–,–,–,1.64,"CCn1c(-c2cc(C#CCN3CCN(C(=O)CN)CC3)cnc2[C@H](C)OC)c2c3cc(ccc31)-c1coc(n1)C[C@H](NC(=O)[C@H]1[C@@H]3COC[C@@H]31)C(=O)N1CCC[C@H](N1)C(=O)OCC(C)(C)C2 (atropisomer, axis not shown; (Ra)) [Compound Z167, (1R,5S,6r)-N-((6^3S,4S,Z)-1^2-(5-(3-(4-glycylpiperazin-1-yl)prop-1-yn-1-yl)-(Ra)-2-((S)-1-methoxyethyl)pyridin-3-yl)-1^1-ethyl-10,10-dimethyl-5,7-dioxo-6^1,6^2,6^3,6^4,6^5,6^6-hexahydro-1^1H-8-oxa-2(4,2)-oxazola-1(5,3)-indola-6(1,3)-pyridazinacycloundecaphane-4-yl)-3-oxabicyclo[3.1.0]hexane-6-carboxamide]",–,–,363,40.9,13.9

# Further lines, the compound ahead of its results:
SMILES,IC50 (H441 p-ERK) [nM],IC50 (AsPC-1 p-ERK; [2]) [nM],solubility at 24 h ([1]; pH 7.4 medium) [µg/mL],IC50 (KRAS WT-cRAF; [3]) [nM],IC50 (KRAS G12V-cRAF; [4]) [nM],"IC50 (AsPC-1 p-ERK; ASPC1, 3 h, read-out: AsPC-1 p-ERK IC50(nM)) [nM]",IC50 (NCI-H441 cells) [nM],IC50 (AsPC-1 cells) [nM],solubility at 24 h ([1]; ph 7.4 medium) [µg/mL],IC50 (KRAS WT-cRAF; [5]) [nM],IC50 (KRAS G12V-cRAF; [6]) [nM]
"CCn1c(-c2cc(C#CCN3CCN(C(=O)CO)CC3)cnc2C(C)OC)c2c3cc(ccc31)-c1csc(n1)CC(NC(=O)C1C(C)C1C)C(=O)N1CCCC(N1)C(=O)OCC(C)(C)C2 (atropisomer, axis not shown; (Ra)) [Compound Z6, (1r,2R,3S)-N-((6^3S,4S,Z)-1^1-ethyl-(Ra)-1^2-(5-(3-(4-(2-hydroxyacetyl)piperazin-1-yl)prop-1-yn-1-yl)-2-((S)-1-methoxyethyl)pyridin-3-yl)-10,10-dimethyl-5,7-dioxo-6^1,6^2,6^3,6^4,6^5,6^6-hexahydro-1^1H-8-oxa-2(4,2)-thiazola-1(5,3)-indola-6(1,3)-pyridazinacycloundecaphane-4-yl)-2,3-dimethylcyclopropane-1-carboxamide]",0.21,0.15,7.8,19.2,10.7,–,0.28,0.31,–,–,–
"CCn1c(-c2cc(C#CCN3CCS(=O)(=O)CC3)cnc2C(C)OC)c2c3cc(ccc31)-c1csc(n1)CC(NC(=O)C1C3CNCC31)C(=O)N1CCCC(N1)C(=O)OCC(C)(C)C2 (atropisomer, axis not shown; (Ra)) [Compound Z18, (1R,5S,6r)-N-((6^3S,4S,Z)-(Ra)-1^2-(5-(3-(1,1-dioxidothiomorpholino)prop-1-yn-1-yl)-2-((S)-1-methoxyethyl)pyridin-3-yl)-1^1-ethyl-10,10-dimethyl-5,7-dioxo-6^1,6^2,6^3,6^4,6^5,6^6-hexahydro-1^1H-8-oxa-2(4,2)-thiazola-1(5,3)-indola-6(1,3)-pyridazinacycloundecaphane-4-yl)-3-azabicyclo[3.1.0]hexane-6-carboxamide]",–,–,22.4,31,16.5,–,–,–,–,–,–
"COCCn1c(-c2cc(C#CCN3CCN(C(=O)CO)CC3)c[n+]([O-])c2[C@H](C)OC)c2c3cc(ccc31)-c1csc(n1)C[C@H](NC(=O)[C@H]1[C@H](C)[C@@H]1C)C(=O)N1CCC[C@H](N1)C(=O)OCC(C)(C)C2 (atropisomer, axis not shown; (Ra)) [Compound Z54, (Ra)-3-((6^3S,4S,Z)-4-((1r,2R,3S)-2,3-dimethylcyclopropane-1-carboxamido)-1^1-(2-methoxyethyl)-10,10-dimethyl-5,7-dioxo-6^1,6^2,6^3,6^4,6^5,6^6-hexahydro-11H-8-oxa-2(4,2)-thiazola-1(5,3)-indola-6(1,3)-pyridazinacyclodecaphane-1^2-yl)-5-(3-(4-(2-hydroxyacetyl)piperazin-1-yl)prop-1-yn-1-yl)-2-((S)-1-methoxyethyl)pyridine 1-oxide]",–,–,–,–,–,–,4.7,14,36.2,74.8,12.1
"CCn1c(-c2cc(OCCN3CCC(C#N)(CN)CC3)c[n+]([O-])c2[C@H](C)OC)c2c3cc(ccc31)-c1csc(n1)C[C@H](NC(=O)[C@H]1[C@H](C)[C@@H]1C)C(=O)N1CCC[C@H](N1)C(=O)OCC(C)(C)C2 (atropisomer, axis not shown; (Ra)) [Compound Z73, 5-(2-(4-(aminomethyl)-4-cyanopiperidin-1-yl)ethoxy)-(Ra)-3-((6^3S,4S,Z)-4-((1r,2R,3S)-2,3-dimethylcyclopropane-1-carboxamido)-1^1-ethyl-10,10-dimethyl-5,7-dioxo-6^1,6^2,6^3,6^4,6^5,6^6-hexahydro-1^1H-8-oxa-2(4,2)-thiazola-1(5,3)-indola-6(1,3)-pyridazinacycloundecaphane-1^2-yl)-2-((S)-1-methoxyethyl)pyridine 1-oxide]",3.84,3.19,–,–,–,–,2.48,2.5,96.6,–,–
